In brackets after ≈: the same amount, converted by molar mass.
Tests used:
Klebsiella pneumoniae = assay: In vitro antibacterial activity (MIC), Gram-negative; conditions: for MIC Range: 6 strains tested; for MIC50 / MIC90: Klebsiella pneumoniae
Branhamella catarrhalis = assay: as above; conditions: for MIC Range: 5 strains tested; for MIC50 / MIC90: Moraxella catarrhalis
Haemophilus influenzae = assay: as above; conditions: for MIC Range: 11 strains tested; for MIC50 / MIC90: Haemophilus influenzae
Streptococcus agalactiae = assay: In vitro antibacterial activity (MIC), erythromycin-sensitive strains; conditions: for MIC Range: 4 strains tested, erythromycin-sensitive; for MIC50 / MIC90: Streptococcus agalactiae
Staphylococcus aureus = assay: as above; conditions: for MIC Range: 13 strains tested, erythromycin-sensitive; for MIC50 / MIC90: Staphylococcus aureus
[1] = system: Streptococcus pyogenes C 203; assay: In vivo therapeutic efficacy (PD50), experimental pulmonary infection in mice; conditions: for PD50: mice, pulmonary infection
[2] = system: Streptococcus pneumoniae UC 41; assay: as above; conditions: pulmonitis
Escherichia coli = assay: In vitro antibacterial activity (MIC), Gram-negative; conditions: 3 strains tested
Streptococcus group A = assay: In vitro antibacterial activity (MIC), erythromycin-sensitive strains; conditions: for MIC Range: 15 strains tested, erythromycin-sensitive
Streptococcus pneumoniae = assay: as above; conditions: for MIC Range: 18 strains tested, erythromycin-sensitive; for MIC50 / MIC90: Streptococcus pneumoniae
[3] = system: recently clinically isolated, erythromycin-resistant strains of Streptococcus pneumoniae; assay: In vitro antibacterial activity (MIC), broth-scalar dilution micromethod, erythromycin-resistant clinical isolates; conditions: 18 h, 37° C.
[4] = oral single dose 1 hour after the infection
[5] = oral single dose 24 hours before the infection
[6] = oral single dose 48 hours before the infection
[7] = oral single dose 72 hours before the infection
[8] = Strain 871, erythromycin-resistant
[9] = Strain 1035, erythromycin-resistant
[10] = Strain 1047, erythromycin-resistant
[11] = Strain 1051, erythromycin-resistant
[12] = Strain 1188, erythromycin-resistant
[13] = Strain 1392, erythromycin-resistant
[14] = Strain 9114, erythromycin-resistant
[15] = Strain 9117, erythromycin-resistant

Structure (SMILES) | MIC Range (Klebsiella pneumoniae) [mg/L] | MIC50 (Klebsiella pneumoniae) [mg/L] | MIC90 (Klebsiella pneumoniae) [mg/L] | MIC Range (Branhamella catarrhalis) [mg/L] | MIC50 (Branhamella catarrhalis) [mg/L] | MIC90 (Branhamella catarrhalis) [mg/L] | MIC Range (Haemophilus influenzae) [mg/L] | MIC50 (Haemophilus influenzae) [mg/L] | MIC Range (Streptococcus agalactiae) [mg/L] | MIC50 (Streptococcus agalactiae) [mg/L] | MIC90 (Streptococcus agalactiae) [mg/L] | MIC Range (Staphylococcus aureus) [mg/L] | MIC50 (Staphylococcus aureus) [mg/L] | MIC90 (Staphylococcus aureus) [mg/L] | MIC50 (Streptococcus group A) [mg/L] | MIC90 (Streptococcus group A) [mg/L] | MIC Range (Streptococcus group A) [mg/L] | MIC Range (Streptococcus pneumoniae) [mg/L] | MIC50 (Streptococcus pneumoniae) [mg/L] | MIC90 (Streptococcus pneumoniae) [mg/L] | further results
CC[C@H]1OC(=O)[C@H](C)[C@@H](O[C@H]2C[C@@](C)(OC)[C@@H](O)[C@H](C)O2)[C@H](C)[C@@H](O[C@@H]2O[C@H](C)C[C@H](N(C)C)[C@H]2O)[C@](C)(O)C[C@@H](C)CN(C)[C@H](C)[C@@H](O)[C@]1(C)O [Azithromycin] | 4 to 8 | 4 (≈ 5.34 µM) | 8 (≈ 10.7 µM) | 0.0078 to 0.0156 | 0.0156 (≈ 0.0208 µM) | 0.0156 (≈ 0.0208 µM) | 0.25 to 1 | 0.5 (≈ 0.668 µM) | 0.0312 to 0.25 | 0.0625 (≈ 0.0834 µM) | 0.25 (≈ 0.334 µM) | 0.5 to 1 | 0.5 (≈ 0.668 µM) | 1 (≈ 1.34 µM) | 0.0625 (≈ 0.0834 µM) | 0.125 (≈ 0.167 µM) | 0.0625 to 1 | 0.0156 to 0.5 | 0.0312 (≈ 0.0417 µM) | 0.0625 (≈ 0.0834 µM) | MIC90 (Haemophilus influenzae): 1 mg/L (≈ 1.34 µM); therapeutic efficacy (duration of action in vivo), in words ([1]; 72 hours after administration): lose most of their efficacy; PD50 [1, 4]: 5.32 µmol/kg; PD50 [1, 5]: 16.45 µmol/kg; PD50 [1, 6]: 34.13 µmol/kg; PD50 [1, 7]: >85.4 µmol/kg; PD50 [2, 5]: 16.45 µmol/kg; PD50 [2, 6]: 34.13 µmol/kg; MIC Range (Escherichia coli): 2 to 4 mg/L; MIC [3, 8]: 2 mg/L (≈ 2.67 µM); MIC [3, 9]: 2 mg/L (≈ 2.67 µM); MIC [3, 10]: 4 mg/L (≈ 5.34 µM); MIC [3, 11]: 64 mg/L (≈ 85.4 µM); MIC [3, 12]: 8 mg/L (≈ 10.7 µM); MIC [3, 13]: 16 mg/L (≈ 21.4 µM); MIC [3, 14]: 32 mg/L (≈ 42.7 µM); MIC [3, 15]: 64 mg/L (≈ 85.4 µM)
CC[C@H]1OC(=O)[C@H](C)[C@@H](O[C@H]2C[C@@](C)(OC)[C@@H](O)[C@H](C)O2)[C@H](C)[C@@H](O[C@@H]2O[C@H](C)C[C@H](N(C)C)[C@H]2O)[C@](C)(OC)C[C@@H](C)C(=O)[C@H](C)[C@@H](O)[C@]1(C)O [Clarithromycin] | 64 (≈ 85.6 µM) | 64 (≈ 85.6 µM) | 64 (≈ 85.6 µM) | 0.0078 to 0.0156 | 0.0156 (≈ 0.0209 µM) | 0.0156 (≈ 0.0209 µM) | 2 to 8 | – | 0.0156 to 0.0625 | 0.0312 (≈ 0.0417 µM) | 0.0625 (≈ 0.0836 µM) | 0.125 to 0.25 | 0.25 (≈ 0.334 µM) | 0.25 (≈ 0.334 µM) | 0.0156 (≈ 0.0209 µM) | 0.0156 (≈ 0.0209 µM) | 0.0078 to 0.25 | 0.0039 to 0.125 | 0.0156 (≈ 0.0209 µM) | 0.0156 (≈ 0.0209 µM) | therapeutic efficacy (duration of action in vivo), in words ([1]; administered 24 hours before the infection): lose most of their efficacy; PD50 [1, 4]: 7.38 µmol/kg; PD50 [1, 5]: >85.6 µmol/kg; MIC Range (Escherichia coli): 16 to 64 mg/L
CC[C@H]1OC(=O)[C@H](C)[C@@H](OC2CC(C)(OC)C(O)C(C)O2)[C@H](C)[C@@H](OC2OC(C)CC(N(C)C)C2O)[C@](C)(O)C[C@@H](C)/C(=N\OCCNCCCCCCNCc2nccs2)[C@H](C)[C@@H](O)[C@]1(C)O (stereo partly shown) [Compound A] | 16 to 32 | 16 (≈ 16.2 µM) | 32 (≈ 32.4 µM) | 0.0019 to 0.125 | 0.125 (≈ 0.126 µM) | 0.125 (≈ 0.126 µM) | 1 to 8 | 4 (≈ 4.05 µM) | 0.0078 to 0.25 | 0.0156 (≈ 0.0158 µM) | 0.25 (≈ 0.253 µM) | 0.25 to 1 | 0.5 (≈ 0.506 µM) | 0.5 (≈ 0.506 µM) | 0.0156 (≈ 0.0158 µM) | 0.0312 (≈ 0.0316 µM) | 0.0078 to 0.5 | 0.0019 to 0.25 | 0.0039 (≈ 0.00395 µM) | 0.0156 (≈ 0.0158 µM) | MIC90 (Haemophilus influenzae): 4 mg/L (≈ 4.05 µM); therapeutic efficacy (duration of action in vivo), in words ([1]; 72 hours after administration): still effective; PD50 [1, 4]: 15.45 µmol/kg; PD50 [1, 5]: 16.39 µmol/kg; PD50 [1, 6]: 25.90 µmol/kg; PD50 [1, 7]: 31.51 µmol/kg; PD50 [2, 5]: 16.39 µmol/kg; PD50 [2, 6]: 25.90 µmol/kg; MIC Range (Escherichia coli): 1 to 8 mg/L; MIC [3, 8]: 0.5 mg/L (≈ 0.506 µM); MIC [3, 9]: 2 mg/L (≈ 2.02 µM); MIC [3, 10]: 2 mg/L (≈ 2.02 µM); MIC [3, 11]: 1 mg/L (≈ 1.01 µM); MIC [3, 12]: 2 mg/L (≈ 2.02 µM); MIC [3, 13]: 4 mg/L (≈ 4.05 µM); MIC [3, 14]: 0.25 mg/L (≈ 0.253 µM); MIC [3, 15]: 0.25 mg/L (≈ 0.253 µM)
CC[C@H]1OC(=O)[C@H](C)[C@@H](O[C@H]2C[C@@](C)(OC)[C@@H](O)[C@H](C)O2)[C@H](C)[C@@H](O[C@@H]2O[C@H](C)C[C@H](N(C)C)[C@H]2O)[C@](C)(O)C[C@@H](C)/C(=N\OCOCCOC)[C@H](C)[C@@H](O)[C@]1(C)O [Roxithromycin] | >64 | > 64 | > 64 | 0.0312 to 0.0625 | 0.0312 (≈ 0.0373 µM) | 0.0625 (≈ 0.0747 µM) | 4 to 16 | 8 (≈ 9.56 µM) | 0.0625 to 0.25 | 0.125 (≈ 0.149 µM) | 0.25 (≈ 0.299 µM) | 0.25 to 1 | 0.5 (≈ 0.597 µM) | 1 (≈ 1.19 µM) | 0.0625 (≈ 0.0747 µM) | 0.0625 (≈ 0.0747 µM) | 0.0312 to 1 | 0.0156 to 0.5 | 0.0625 (≈ 0.0747 µM) | 0.0625 (≈ 0.0747 µM) | MIC90 (Haemophilus influenzae): 8 mg/L (≈ 9.56 µM)
